Assay results taken from patent publication US12516038B2, “Inhibitors of antigen presentation by HLA-DR” (Janssen Pharmaceutica NV, priority 2020, dated 2026).

Tests used:
[1] = tested on: HLA-DR4 restricted mouse T cell hybridoma line (DR4.CII.36.8) with HLA-DRB1*04:01-expressing Boleth cells; assay: HLA-DR4-restricted peptide-specific T cell-based assay (hybridoma assay); conditions: 6 h, inhibition of IL-2 production, CII259-273 peptide presented by Boleth cells
Summary of the method: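 Boleth cells (HLA-DRB1*04:01 B cell line) pre-incubated with compound 1 h at 37° C. in DMEM/1% FCS, then DR4.CII.36.8 mouse T cell hybridoma (CII259-273-specific) added for 6 h with CII259-273 peptide. Supernatant mouse IL-2 by AlphaLISA; IC50 by 4-PL fit of 8-point duplicate titrations.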

HLA-DRB1*0401 = HLA-DRB1*0401 (Homo sapiens (Human), UniProt P01903+P01911, A100K/A169T/DEL228-266/F76Y/I96L/K127E/L162R/M171V/N62H/P40V/Q125Y/R42H/S133A/S149N/S66Y/V115G/V209L/W38E); assay: HLA-DR4 HTRF assay; assay type: binding; conditions: inhibition of loading of Alexa Fluor 647-labeled Cit-CII peptide onto HLA-DR4 (CLIP cleaved)
Summary of the method: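 HLA-DRB1*04:01 construct (α/β fused to human Fc, CLIP pre-cleaved by HRV3C overnight at 4° C) at 3 nM was preincubated 45 min with compound and 1 nM anti-Fc-Tb donor, then 40 nM Alexa647-Cit-CII1236-1249 peptide added. After 90 min at 37° C, the 665/620 nm HTRF ratio gave % inhibition; IC50 by nonlinear regression.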

[2] = tested on: human peripheral blood CD4+ helper T cells; assay: Pan-CD4+ T cell activation (off-target assay); assay type: cell-based; conditions: Homo sapiens, T-cell, 24 h, anti-CD3/anti-CD28 stimulation, IL-2 production by ELISA
Source text: The counter-screening was made through an HLA-DR-independent assay (Pan-CD4+ T cell activation assay), i.e., TCR-stimulated pan-T cell activation assay, and consists of activating T cell directly with agonistic antibody targeting the T cell receptor. The lack of inhibition in the counter-screening assay reflects that the inhibition of T cell activation in the HLA-DR4 restricted peptide-specific T cell based assay with the small molecule inhibitors is due to impaired antigen presentation on HLA-DR to the T cell and not due to a direct inhibition of the T cell function by an off-target mechanism (i.e., independently of targeting HLA-DR).
Pan-CD4+ T Cell Activation
Compounds were tested using a pan-T cell activation assay. In this assay, anti-human CD3 antibody (BD Pharmingen #55336) pre-coated at 1 μg/mL to a 96-well assay plate and 1 μg/ml soluble anti-human CD28 (EBioscience #16-0289-85) antibody were used for activating human peripheral blood CD4+ helper T cells (no HLA-DR-expressing APC were present in this assay format), in the presence of compounds (or vehicle control) for 24 hrs. IL-2 production was measured in the culture supernatant by ELISA (Human IL-2 Duo Set ELISA #DY202 from R&D Systems).

Row | SMILES | IC50 ([1]; Mus musculus, T-cell) [nM] | IC50 (HLA-DRB1*0401) [nM] | IC50 [2] [nM] | IC50 [1] [nM]
1 | O=C1CCOc2cc(OC(c3ccncc3)c3cccc(F)c3)ccc21 (racemic) [Example 2, (R,S)-7-((3-Fluorophenyl)(pyridin-4-yl)methoxy)chroman-4-one] | 2800 | 1000 | > 15000 | –
2 | O=C1CCOc2cc(OC(c3ccncc3)c3ccc(F)cc3)ccc21 (racemic) [Example 3, (R,S)-7-((4-Fluorophenyl)(pyridin-4-yl)methoxy)chroman-4-one] | 3700 | 990 | > 15000 | –
3 | NC(=O)c1ccc(C(Oc2ccc3c(c2)OCCC3=O)c2ccncc2)cc1 (racemic) [Example 11, (R,S)-4-(((4-Oxochroman-7-yl)oxy)(pyridin-4-yl)methyl)benzamide] | 1200 | 650 | > 15000 | –
4 | COc1ccc(C(Oc2ccc3c(c2)OCCC3=O)c2ccncc2)cc1 (racemic) [Example 12, (R,S)-7-((4-Methoxyphenyl)(pyridin-4-yl)methoxy)chroman-4-one] | 1600 | 1200 | > 15000 | –
5 | COc1ccccc1C(Oc1ccc2c(c1)OCCC2=O)c1ccncc1 (racemic) [Example 14, 7-((2-Methoxyphenyl)(pyridin-4-yl)methoxy)chroman-4-one] | 5000 | 2400 | > 15000 | –
6 | O=C1CCOc2cc(OC(c3ccccc3)c3ccncc3)ccc21 (racemic) [Example 114, (R,S)-7-(Phenyl(pyridin-4-yl)methoxy)chroman-4-one] | 11000 | 3400 | > 10000 | –
7 | CC(C)c1c(O[C@H](c2ccc(C(N)=O)cc2)c2cccc(C#N)c2)ccc2c1OCCC2=O (single isomer, unassigned) [Example 107a, (*R)-4-((3-cyanophenyl)((8-isopropyl-4-oxochroman-7-yl)oxy)methyl)benzamide] | 10000 | 940 | – | –
8 | CC(C)c1c(O[C@@H](c2ccc(C(N)=O)cc2)c2cccc(C#N)c2)ccc2c1OCCC2=O (single isomer, unassigned) [Example 107b, (*S)-4-((3-cyanophenyl)((8-isopropyl-4-oxochroman-7-yl)oxy)methyl)benzamide] | 2300 | 1100 | – | –
9 | CC(C)c1c(O[C@H](c2ccc(C(N)=O)cc2)c2ccc(C(=O)O)cc2)ccc2c1OCCC2=O (single isomer, unassigned) [Example 108a, (*R)-4-((4-carbamoylphenyl)((8-isopropyl-4-oxochroman-7-yl)oxy)methyl)benzoic acid] | > 15000 | 860 | – | –
10 | CC(C)c1c(O[C@@H](c2ccc(C(N)=O)cc2)c2ccc(C(=O)O)cc2)ccc2c1OCCC2=O (single isomer, unassigned) [Example 108b, (*S)-4-((4-carbamoylphenyl)((8-isopropyl-4-oxochroman-7-yl)oxy)methyl)benzoic acid] | 2700 | 820 | – | –
11 | Cc1cc([C@H](Oc2cc3c(cc2F)C(=O)CCO3)c2ccc(C(N)=O)cc2)cc(C)n1 (single isomer, unassigned) [Example 109a, (*R)-4-((2,6-dimethylpyridin-4-yl)((6-fluoro-4-oxochroman-7-yl)oxy)methyl)benzamide] | – | 210 | – | 1100
12 | Cc1cc([C@@H](Oc2cc3c(cc2F)C(=O)CCO3)c2ccc(C(N)=O)cc2)cc(C)n1 (single isomer, unassigned) [Example 109b, (*S)-4-((2,6-dimethylpyridin-4-yl)((6-fluoro-4-oxochroman-7-yl)oxy)methyl)benzamide] | – | 230 | – | 12000
13 | Cc1cc([C@H](Oc2ccc3c(c2C#N)OCCC3=O)c2ccc(C(N)=O)cc2)cc(C)n1 (single isomer, unassigned) [Example 110a, (*R)-4-(((8-cyano-4-oxochroman-7-yl)oxy)(2,6-dimethylpyridin-4-yl)methyl)benzamide] | 120 | 550 | – | –
14 | Cc1cc([C@@H](Oc2ccc3c(c2C#N)OCCC3=O)c2ccc(C(N)=O)cc2)cc(C)n1 (single isomer, unassigned) [Example 110b, (*S)-4-(((8-cyano-4-oxochroman-7-yl)oxy)(2,6-dimethylpyridin-4-yl)methyl)benzamide] | 790 | 610 | – | –
15 | Cc1cc([C@H](Oc2ccc3c(c2C)OCCC3=O)c2ccc(C(N)=O)cc2)cc(C)n1 (single isomer, unassigned) [Example 111a, (*R)-4-((2,6-dimethylpyridin-4-yl)((8-methyl-4-oxochroman-7-yl)oxy)methyl)benzamide] | 600 | 490 | – | –
16 | Cc1cc([C@H](Oc2ccc3c(c2C)OC(C)(C)CC3=O)c2ccc(C(N)=O)cc2)cc(C)n1 (single isomer, unassigned) [Example 112a, (*R)-4-((2,6-dimethylpyridin-4-yl)((2,2,8-trimethyl-4-oxochroman-7-yl)oxy)methyl)benzamide] | 410 | 760 | – | –
17 | Cc1cc([C@@H](Oc2ccc3c(c2C)OC(C)(C)CC3=O)c2ccc(C(N)=O)cc2)cc(C)n1 (single isomer, unassigned) [Example 112b, (*S)-4-((2,6-dimethylpyridin-4-yl)((2,2,8-trimethyl-4-oxochroman-7-yl)oxy)methyl)benzamide] | 4000 | 600 | – | –
18 | CC[C@@H]1CC(=O)c2ccc(OCc3ccncc3OC)cc2O1 (single isomer, unassigned) [Example 119a, (*R)-2-ethyl-7-((3-methoxypyridin-4-yl)methoxy)chroman-4-one] | 13000 | 540 | – | –
19 | CC[C@H]1CC(=O)c2ccc(OCc3ccncc3OC)cc2O1 (single isomer, unassigned) [Example 119b, (*S)-2-ethyl-7-((3-methoxypyridin-4-yl)methoxy)chroman-4-one] | > 15000 | 690 | – | –
20 | Cc1c(O[C@@H]2CCc3cc(C(N)=O)ccc32)ccc2c1OCCC2=O (single isomer, unassigned) [Example 121a, (*R)-1-((8-methyl-4-oxochroman-7-yl)oxy)-2,3-dihydro-1H-indene-5-carboxamide] | > 15000 | 930 | – | –
21 | Cc1c(O[C@@H]2CCCc3cc(C#N)ccc32)ccc2c1OCCC2=O (single isomer, unassigned) [Example 122a, (*R)-5-((8-methyl-4-oxochroman-7-yl)oxy)-5,6,7,8-tetrahydronaphthalene-2-carbonitrile] | 6300 | 540 | – | –
22 | Cc1c(O[C@H]2CCCc3cc(C#N)ccc32)ccc2c1OCCC2=O (single isomer, unassigned) [Example 122b, (*S)-5-((8-methyl-4-oxochroman-7-yl)oxy)-5,6,7,8-tetrahydronaphthalene-2-carbonitrile] | 15000 | 930 | – | –
23 | Cc1c(O[C@@H]2CCCc3cc(C(N)=O)ccc32)ccc2c1OCCC2=O (single isomer, unassigned) [Example 123a, (*R)-5-((8-methyl-4-oxochroman-7-yl)oxy)-5,6,7,8-tetrahydronaphthalene-2-carboxamide] | 7900 | 630 | – | –
24 | Cc1c(O[C@H]2CCCc3cc(C(N)=O)ccc32)ccc2c1OCCC2=O (single isomer, unassigned) [Example 123b, (*S)-5-((8-methyl-4-oxochroman-7-yl)oxy)-5,6,7,8-tetrahydronaphthalene-2-carboxamide] | 6300 | 570 | – | –
25 | Cc1c(O[C@@H]2CCc3cnccc32)ccc2c1OCCC2=O (single isomer, unassigned) [Example 124a, (*R)-7-((6,7-dihydro-5H-cyclopenta[c]pyridin-5-yl)oxy)-8-methylchroman-4-one] | 14000 | 570 | – | –
26 | Cc1c(O[C@H]2CCc3cnccc32)ccc2c1OCCC2=O (single isomer, unassigned) [Example 124b, (*S)-7-((6,7-dihydro-5H-cyclopenta[c]pyridin-5-yl)oxy)-8-methylchroman-4-one] | 6000 | 740 | – | –
27 | Cc1cc(COc2ccc3c(c2C(C)C)OCCC3=O)cc(C)n1 [Example 117, 7-((2,6-Dimethylpyridin-4-yl)methoxy)-8-isopropylchroman-4-one] | 3100 | 680 | – | –
